Experimental data: patent US6013672A, “Agonists of metabotropic glutamate receptors and uses thereof” (UAB Research Foundation, priority 1997, dated 2000)

Tests used:
dopaminergic neurons = assay: Cell death of dopaminergic neurons induced by glutamate or MPTP; assay type: cell-based, rat
Description: Cell death of dopaminergic neurons induced by glutamate, and the role of glial glutamate transport in protection of cell death at the cellular level were studied as it relates to Parkinson's disease. […] Thus, glutamate concentrations as low as 3-5 μM induced rapid cell death (FIGS. 11 and 12). Glutamate concentrations were also measured in the normal brain. They are typically around 1 μM, below the toxic level for dopaminergic neurons. […] This late onset of glutamate toxicity is compatible with the late onset of Parkinson's disease.

hippocampal astrocytes = assay: Removal of an exogenous glutamate challenge by astrocyte cultures, [Glu]o over time; assay type: cell-based, rat
Description: The bioluminescence method for detection was used for glutamate in solution as described by Fosse et al. (1986) with only minor modifications. The glutamate-specific reagent mixture contained potassium phosphate (pH 7.0) 25 mM, Triton X-100 40 μg/ml, dithiothreitol 100 μM, Myristyl aldehyde 40 μM (Aldrich; Milwaukee, Wis.), β-NAD 2 mM, ADP 250 μM, FMN 2.5 μM, luciferase 40 μg/ml, NAD(P)H:FMN oxidoreductase 400 mU/ml, glutamate dehydrogenase 0.5 mg/ml. All experiments were performed with a Monolight 2010 luminomitor (Analytical Luminescence Lab; Ann Arbor, Mich.).
For experiments in which [Glu]o concentrations were assessed by the bioluminescence method, cells were maintained in glutamate-depleted medium in the presence or absence of the agonists/antagonist combination of interest. To assess chronic effects, glutamate analogues were applied for 24 hours unless indicated otherwise. After the incubation period, the stimulation media (containing drugs of interest) were aspirated and cells were washed twice with MEM and allowed to remain for 30 to 60 minutes in drug free MEM supplemented with 20 mM glucose prior to taking media samples for glutamate measurements. To assess acute drug effects, untreated cells were washed and the reagent of interest applied in glucose supplemented MEM. Cells were harvested in 0.3 N NaOH and neutralized with 0.3 N HCl. Aliquots were stored in -20° C. for protein and [Glu]i determination. Glutamate standards used for calibration were prepared in MEM (For [Glu]i in 0.15 N NaCl).
To delineate the role of mGluR receptors on [Glu]o levels, hippocampal astrocytes were challenged with 50 μM glutamate and cells that were pretreated with trans-ACPD were compared to control cultures (FIG. 2A). Control astrocytes rapidly remove glutamate from the medium, and after ≈3 hours, [Glu]o stabilized at values to 1 μM. […] Mean values were 0.96±0.1 μM in control astrocytes, as compared to 0.18±0.03 μM in trans-ACPD treated astrocytes.
Glutamate undoubtedly is the endogenous ligand for mGluRs. However, it was necessary to establish whether glutamate itself can induce the modulation in glutamate levels observed, and thus can mimic the modulatory effects observed with ACPD. These studies are difficult since, unlike ACPD, glutamate is also a substrate for the transporter, and therefore, is readily removed. Experiments were carried out in two ways, each yielding similar results. First, cells were preincubated for 24 hours with 100 μM glutamate, then washed and [Glu]o measured in MEM, or secondly, glutamate was directly applied in MEM and changes in [Glu]o were monitored.

GLT-1 = conditions: cited from earlier work

N[C@@H](CCC(=O)O)C(=O)O [glutamate]
IC50 (dopaminergic neurons): ~5 µM | neuronal cell death (dopaminergic neurons; 0.03 mM): neurotoxic to most neurons | susceptibility of neurons to glutamate by age (dopaminergic neurons; adult rats (>30 days)): highest glutamate sensitivity | glutamate concentrations inducing rapid cell death (dopaminergic neurons; rat): 3 to 5 µM | susceptibility of neurons to glutamate by age (dopaminergic neurons; young rats): relatively insensitive | duration of glutamate undershoot (hippocampal astrocytes; 100 μM glutamate): approximately 10 hours | THA induced glutamate release during undershoot (hippocampal astrocytes; 100 μM glutamate several hours before, 200 μM THA): induced less glutamate release | [Glu]o undershoot level after glutamate challenge (hippocampal astrocytes; 100 μM glutamate, P22 astrocyte culture): ≈ 0.4 μM | Km (GLT-1): 2 µM
